Data from patent US20140343000A1 (priority 2011, published 2014).

System: recombinant NL4-3 virus (Renilla luciferase in nef, Gag P373S; NLRluc) in MT-2 cells
Test: whole plant or invertebrate
Format: cell-based, HIV
Conditions: Renilla, NL43, luciferase activity in cells infected for 4-5 days with NLRluc recombinants, serial dilutions of inhibitor; class symbols (key in Table 1); read-out: EC50
In short: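 First, reporter virus was generated in 293T cells and titered on MT-2 cells. Next, MT-2 cells were infected in the presence of serial compound dilutions for 4-5 days. Finally, cells were lysed and luciferase activity was measured to quantify inhibition.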

Compound	EC50 [nM]
C=C(C)[C@@H]1CC[C@]2(NC(=O)NCCN(C)S(C)(=O)=O)CC[C@]3(C)[C@H](CC[C@@H]4[C@@]5(C)CC=C(c6ccc(C(=O)O)cc6)C(C)(C)[C@@H]5CC[C@]43C)[C@@H]12 [Example 50, 4-((1R,3aS,5aR,5bR,7aR,11aS,11bR,13aR,13bR)-5a,5b,8,8,11a-pentamethyl-3a-(3-(2-(N-methylmethylsulfonamido)ethyl)ureido)-1-(prop-1-en-2-yl)-2,3,3a,4,5,5a,5b,6,7,7a,8,11,11a,11b,12,13,13a,13b-octadecahydro-1H-cyclopenta[a]chrysen-9-yl)benzoic acid]	< 100
CC(C)[C@@H]1CC[C@]2(NCCN3CCS(=O)(=O)CC3)CC[C@]3(C)[C@H](CC[C@@H]4[C@@]5(C)CC=C(c6ccc(C(=O)O)cc6)C(C)(C)[C@@H]5CC[C@]43C)[C@@H]12 [Example 163, 4-((1S,3aS,5aR,5bR,7aR,11aS,11bR,13aR,13bR)-3a-((2-(1,1-dioxido-4-thiomorpholinyl)ethyl)amino)-1-isopropyl-5a,5b,8,8,11a-pentamethyl-2,3,3a,4,5,5a,5b,6,7,7a,8,11,11a,11b,12,13,13a,13b-octadecahydro-1H-cyclopenta[a]chrysen-9-yl)benzoic acid]	< 100
C=C(C)[C@@H]1CC[C@]2(NC(=O)N3CCN(C4CCN(C)CC4)CC3)CC[C@]3(C)[C@H](CC[C@@H]4[C@@]5(C)CC=C(c6ccc(C(=O)O)cc6)C(C)(C)[C@@H]5CC[C@]43C)[C@@H]12 [Example 40, 4-((1R,3aS,5aR,5bR,7aR,11aS,11bR,13aR,13bR)-5a,5b,8,8,11a-pentamethyl-3a-(4-(1-methylpiperidin-4-yl)piperazine-1-carboxamido)-1-(prop-1-en-2-yl)-2,3,3a,4,5,5a,5b,6,7,7a,8,11,11a,11b,12,13,13a,13b-octadecahydro-1H-cyclopenta[a]chrysen-9-yl)benzoic acid]	< 100
CC(C)[C@@H]1CC[C@]2(NCCCN3CCOCC3)CC[C@]3(C)[C@H](CC[C@@H]4[C@@]5(C)CC=C(c6ccc(C(=O)O)cc6)C(C)(C)[C@@H]5CC[C@]43C)[C@@H]12 [Example B11, 4-((1S,3aS,5aR,5bR,7aR,11aS,11bR,13aR,13bR)-1-isopropyl-5a,5b,8,8,11a-pentamethyl-3a-((3-morpholinopropyl)amino)-2,3,3a,4,5,5a,5b,6,7,7a,8,11,11a,11b,12,13,13a,13b-octadecahydro-1H-cyclopenta[a]chrysen-9-yl)benzoic acid]	< 100
C=C(C)[C@@H]1CC[C@]2(NCCN3CCN(S(=O)(=O)c4ccccc4)CC3)CC[C@]3(C)[C@H](CC[C@@H]4[C@@]5(C)CC=C(c6ccc(C(=O)O)cc6)C(C)(C)[C@@H]5CC[C@]43C)[C@@H]12 [Example B44, 4-((1R,3aS,5aR,5bR,7aR,11aS,11bR,13aR,13bR)-5a,5b,8,8,11a-pentamethyl-3a-((2-(4-(phenylsulfonyl)piperazin-1-yl)ethyl)amino)-1-(prop-1-en-2-yl)-2,3,3a,4,5,5a,5b,6,7,7a,8,11,11a,11b,12,13,13a,13b-octadecahydro-1H-cyclopenta[a]chrysen-9-yl)benzoic acid]	< 100
C=C(C)[C@@H]1CC[C@]2(Nc3nc(C)c(C)s3)CC[C@]3(C)[C@H](CC[C@@H]4[C@@]5(C)CC=C(c6ccc(C(=O)O)cc6)C(C)(C)[C@@H]5CC[C@]43C)[C@@H]12 [Example 183, 4-((1R,3aS,5aR,5bR,7aR,11aS,11bR,13aR,13bR)-3a-(4,5-dimethylthiazol-2-ylamino)-5a,5b,8,8,11a-pentamethyl-1-(prop-1-en-2-yl)-2,3,3a,4,5,5a,5b,6,7,7a,8,11,11a,11b,12,13,13a,13b-octadecahydro-1H-cyclopenta[a]chrysen-9-yl)benzoic acid]	< 100
C=C(C)[C@@H]1CC[C@]2(NCCN3CCN(S(=O)(=O)CC)CC3)CC[C@]3(C)[C@H](CC[C@@H]4[C@@]5(C)CC=C(c6ccc(C(=O)O)cc6)C(C)(C)[C@@H]5CC[C@]43C)[C@@H]12 [Example B19, 4-((1R,3aS,5aR,5bR,7aR,11aS,11bR,13aR,13bR)-3a-((2-(4-(ethylsulfonyl)piperazin-1-yl)ethyl)amino)-5a,5b,8,8,11a-pentamethyl-1-(prop-1-en-2-yl)-2,3,3a,4,5,5a,5b,6,7,7a,8,11,11a,11b,12,13,13a,13b-octadecahydro-1H-cyclopenta[a]chrysen-9-yl)benzoic acid]	< 100
C=C(C)[C@@H]1CC[C@]2(NC(=O)N3CCNCC(O)C3)CC[C@]3(C)[C@H](CC[C@@H]4[C@@]5(C)CC=C(c6ccc(C(=O)O)cc6)C(C)(C)[C@@H]5CC[C@]43C)[C@@H]12 (mixture of isomers) [Example 64, 4-((1R,3aS,5aR,5bR,7aR,11aS,11bR,13aR,13bR)-3a-(6-hydroxy-1,4-diazepane-1-carboxamido)-5a,5b,8,8,11a-pentamethyl-1-(prop-1-en-2-yl)-2,3,3a,4,5,5a,5b,6,7,7a,8,11,11a,11b,12,13,13a,13b-octadecahydro-1H-cyclopenta[a]chrysen-9-yl)benzoic acid]	< 100
C=C(C)[C@@H]1CC[C@]2(NC(=O)N(CCN)CC(=O)O)CC[C@]3(C)[C@H](CC[C@@H]4[C@@]5(C)CC=C(c6ccc(C(=O)O)cc6)C(C)(C)[C@@H]5CC[C@]43C)[C@@H]12 [Example 58, 4-((1R,3aS,5aR,5bR,7aR,11aS,11bR,13aR,13bR)-3a-(3-(2-aminoethyl)-3-(carboxymethyl)ureido)-5a,5b,8,8,11a-pentamethyl-1-(prop-1-en-2-yl)-2,3,3a,4,5,5a,5b,6,7,7a,8,11,11a,11b,12,13,13a,13b-octadecahydro-1H-cyclopenta[a]chrysen-9-yl)benzoic acid]	< 100
C=C(C)[C@@H]1CC[C@]2(NCCN3CCN(C(=O)C(C)c4ccccc4)CC3)CC[C@]3(C)[C@H](CC[C@@H]4[C@@]5(C)CC=C(c6ccc(C(=O)O)cc6)C(C)(C)[C@@H]5CC[C@]43C)[C@@H]12 (stereo partly drawn) [Example B58, 4-((1R,3aS,5aR,5bR,7aR,11aS,11bR,13aR,13bR)-5a,5b,8,8,11a-pentamethyl-3a-((2-(4-(2-phenylpropanoyl)piperazin-1-yl)ethyl)amino)-1-(prop-1-en-2-yl)-2,3,3a,4,5,5a,5b,6,7,7a,8,11,11a,11b,12,13,13a,13b-octadecahydro-1H-cyclopenta[a]chrysen-9-yl)benzoic acid]	< 100

Same assay, conditions: Renilla, NL43, luciferase activity in cells infected for 4-5 days with NLRluc recombinants, serial dilutions of inhibitor; numeric values; read-out: EC50

Compound	EC50 [nM]
C=C(C)[C@@H]1CC[C@]2(NCCNc3ccccn3)CC[C@]3(C)[C@H](CC[C@@H]4[C@@]5(C)CC=C(c6ccc(C(=O)O)cc6)C(C)(C)[C@@H]5CC[C@]43C)[C@@H]12 [Example 188, 4-((1R,3aS,5aR,5bR,7aR,11aS,11bR,13aR,13bR)-5a,5b,8,8,11a-pentamethyl-1-(prop-1-en-2-yl)-3a-(2-(pyridin-2-ylamino)ethylamino)-2,3,3a,4,5,5a,5b,6,7,7a,8,11,11a,11b,12,13,13a,13b-octadecahydro-1H-cyclopenta[a]chrysen-9-yl)benzoic acid]	1
